Values quoted from earlier work as cited in patent US20090030403A1, “Methods and Systems for Attenuating the Tolerance Response to a Drug” (priority 2007, published 2009).
Read-outs that look alike come from different tables or passages of the source.

Columns and labels:
[1] = not given; remark: listed apart in the source
[2] = not given; remark: listed apart in the source
[3] = not given; remark: listed apart in the source
[4] = system: maximal electroshock seizures; conditions: compared with ethosuximide
sodium channels = conditions: in vitro
T-type Ca^2+ currents = conditions: in vitro
[5] = system: cultured mouse spinal cord neurons; conditions: 10-30 μg/mL
rat hippocampal slices = conditions: 10-30 μg/mL
[6] = system: dopaminergic and serotonergic neurotransmission; conditions: in vivo microdialysis
[7] = system: GABA/benzodiazepine receptor ionophore complex; conditions: in vitro
partial seizures = conditions: adjunctive therapy, partial seizures in adults
[8] = system responsible for the drug's metabolism
[9] = system removing the drug or its metabolites

Structure (SMILES): CC(=O)Nc1nnc(S(N)(=O)=O)s1 [Acetazolamide]
- Half life (in vivo): 3 to 9 h

Structure (SMILES): NC(=O)N1c2ccccc2C=Cc2ccccc21 [Carbamazepine]
- Excreted unchanged (in urine where stated): 2-3% excreted unchanged in urine
- Half life (in vivo): 25 to 65 h
- Metabolism [8]: hepatic CYP3A4 to active epoxide form

Structure (SMILES): CN1C(=O)CC(=O)N(c2ccccc2)c2cc(Cl)ccc21 [Clobazam]
- Half life (in vivo): 18 h
- Excretion [9]: Renal
- Metabolism [8]: Hepatic

Structure (SMILES): O=C1CN=C(c2ccccc2Cl)c2cc([N+](=O)[O-])ccc2N1 [Clonazepam]
- Bioavailability (in vivo): 0.9
- Excretion (in vivo): Renal
- Half life (in vivo): 30 to 40 h
- Metabolism (in vivo): Hepatic CYP3A4

Structure (SMILES): O=C(O)C1N=C(c2ccccc2)c2cc(Cl)ccc2NC1=O (centres unmarked) [Clorazepate]
- Bioavailability (in vivo): 0.91
- Half life (in vivo): 36 to 100 h
- Excretion [9]: Renal
- Metabolism [8]: Hepatic

Structure (SMILES): CN1C(=O)CN=C(c2ccccc2)c2cc(Cl)ccc21 [Diazepam]
- Time to Clinical Onset ([1]; Rectal): 5 to 15 min

Structure (SMILES): CCC1(C)CC(=O)NC1=O (centres unmarked) [Ethosuximide]
- Bioavailability (in vivo): 93%[1]
- Half life (in vivo): 53 h
- Excretion [9]: Renal (20%)
- Metabolism [8]: Hepatic (CYP3A4, CYP2E1)
- Plasma concentration of the drug during long term therapy ([2]; per daily dose of 1 mg/kg): about 2 μg/ml

Structure (SMILES): CCN1C(=O)NC(c2ccccc2)C1=O (centres unmarked) [Ethotoin]
- Half life (in vivo): 3 to 9 h

Structure (SMILES): CCOc1ccc2nc(S(N)(=O)=O)sc2c1 [Ethoxzolamide]
- Protein binding [3]: ~89%
- Half life (in vivo): 2.5 to 5.5 h

Structure (SMILES): NC(=O)OCC(COC(N)=O)c1ccccc1 [Felbamate]
- Bioavailability (in vivo): >90%
- Half life (in vivo): 20 to 23 h
- Metabolism [8]: Hepatic

Structure (SMILES): O=C1NC(c2ccccc2)(c2ccccc2)C(=O)N1COP(=O)(O)O [Fosphenytoin]
- Half life (to convert to phenytoin): 15 minutes to convert to phenytoin

Structure (SMILES): NCC1(CC(=O)O)CCCCC1 [Gabapentin]
- Bioavailability (in vivo): 60% for 0.9 g daily to 27% for 4.8 g daily dose
- Bioavailability (absorption in words) (in vivo): Rapid, in part by saturable carrier-mediated L-
- Excretion (in vivo): Renal
- Food increases absorption by (in vivo): Food increases absorption by 14%
- Half life (in vivo): 5 to 7 h
- Metabolism [8]: not appreciably metabolized

Structure (SMILES): Nc1nnc(-c2cccc(Cl)c2Cl)c(N)n1 [Lamotrigine]
- Half life (healthy adults): 24 to 34 h (healthy adults)
- Excretion [9]: Renal
- Metabolism [8]: Hepatic

Structure (SMILES): CC[C@@H](C(N)=O)N1CCCC1=O [Levetiracetam, α-ethyl-2-oxo-1-pyrrolidineacetamide]
- Half life (in vivo): 6 to 8 h
- Excretion [9]: Renal
- Metabolism [8]: Renal

Structure (SMILES): O=C1Nc2ccc(Cl)cc2C(c2ccccc2Cl)=NC1O (centres unmarked) [Lorazepam]
- Half life (in vivo): 10 to 20 h
- Excretion [9]: Renal
- Metabolism [8]: Hepatic

Structure (SMILES): CCC1(c2ccccc2)NC(=O)N(C)C1=O (centres unmarked) [Mephenytoin]
- Half life (in vivo): 7 h

Structure (SMILES): CCCC(C)(COC(N)=O)COC(N)=O [Meprobamate]
- Half life (in vivo): 10 h
- Excretion [9]: Renal
- Metabolism [8]: Hepatic

Structure (SMILES): CN1C(=O)CC(C)(c2ccccc2)C1=O (centres unmarked) [Mesuximide]
- Half life (active metabolite): 28 to 38 h (active metabolite)
- Half life (in vivo): 1.4 to 2.6 h (mesuximide)
- Excretion [9]: Renal
- Metabolism [8]: Hepatic (demethylation and glucuronidation)
- Activity against maximal electroshock seizures [4]: more active against maximal electroshock seizures

Structure (SMILES): Cc1ncc2n1-c1ccc(Cl)cc1C(c1ccccc1F)=NC2 [Midazolam]
- Time to Clinical Onset ([1]; Buccal): 5 to 8 min
- Time to Clinical Onset ([1]; Intramuscular): 1 to 5 min
- Time to Clinical Onset ([1]; Intravenous): 1 to 5 min
- Excretion (in vivo): Renal
- Half life (in vivo): 1.8 to 6.4 h
- Metabolism (in vivo): Hepatic
- Bioavailability (in vivo, im): I.M. 90%+
- Bioavailability (in vivo, po): Oral ~36%

Structure (SMILES): O=C1CN=C(c2ccccc2)c2cc([N+](=O)[O-])ccc2N1 [Nitrazepam]
- Excretion (in vivo): Renal
- Half life (in vivo): 20 to 40 h
- Metabolism [8]: Hepatic

Structure (SMILES): NC(=O)N1c2ccccc2CC(=O)c2ccccc21 [Oxcarbazepine]
- Half life (healthy adults): 1 to 5 h (healthy adults)
- Bioavailability (in vivo): >95%

Structure (SMILES): CCC1(C)OC(=O)N(C)C1=O (centres unmarked) [Paramethadione]
- Protein binding (in words) [3]: Not significant

Structure (SMILES): NC(=O)NC(=O)Cc1ccccc1 [Phenacemide]
- Half life (in vivo): 22 to 25 h

Structure (SMILES): CCC1(c2ccccc2)C(=O)NC(=O)NC1=O [Phenobarbital]
- Bioavailability (in vivo): >95%
- Excretion (in vivo): Renal and fecal
- Half life (in vivo): 53 to 118 h
- Plasma concentration during long term therapy ([2]; adults, per daily dose of 1 mg/kg): about 10 μg/ml

Structure (SMILES): CN1C(=O)CC(c2ccccc2)C1=O (centres unmarked) [Phensuximide]
- Activity against maximal electroshock seizures [4]: more active against maximal electroshock seizures

Structure (SMILES): O=C1NC(=O)C(c2ccccc2)(c2ccccc2)N1 [Phenytoin, Diphenylhydantoin]
- Half life (in vivo): 22 h
- Bioavailability (oral): 70-100%
- Bioavailability (rectal and intravenous administration): 24.4%
- Excretion [9]: Primarily through the bile
- Metabolism [8]: hepatic
- Concentration at which toxic effects such as nystagmus develop ([2]; in vivo): around 20 μg/ml
- Therapeutic (plasma) concentration for control of seizures ([2]; in vivo): above 10 μg/ml

Structure (SMILES): CC(C)C[C@H](CN)CC(=O)O [Pregabalin]
- Bioavailability (in vivo): ≧90%
- Half life (in vivo): 5 to 6.5 h
- Excretion [9]: Renal
- Metabolism [8]: Negligible

Structure (SMILES): CCC1(c2ccccc2)C(=O)NCNC1=O [Primidone]
- Bioavailability (in vivo): >90%
- Half life (in vivo): Primidone: 5-15 hours,
- Excretion [9]: Renal
- Metabolism [8]: Hepatic
- Plasma concentration of the drug during long term therapy ([2]; per daily dose of 1 mg/kg): about 1 μg/ml

Structure (SMILES): NC(=O)CCC/N=C(\c1ccc(Cl)cc1)c1cc(F)ccc1O [Progabide]
- Bioavailability (in vivo): 0.6
- Half life (in vivo): 4 h
- Excretion [9]: Renal
- Metabolism [8]: Hepatic

Structure (SMILES): NS(=O)(=O)c1ccc(N2CCCCS2(=O)=O)cc1 [Sultiame]
- Half life (in vivo): 24 hour hours
- Bioavailability (oral): 100% (oral)
- Excretion [9]: Fecal (10%) and renal (90%)
- Metabolism [8]: Hepatic secretion

Structure (SMILES): Cc1ccsc1C(=CCCN1CCC[C@@H](C(=O)O)C1)c1sccc1C [Tiagabine]
- Half life (in vivo): 7 to 9 h
- Excretion [9]: Fecal and renal
- Metabolism [8]: Hepatic (CYP450 system)

Structure (SMILES): CC1(C)O[C@@H]2[C@@H](CO[C@@]3(COS(N)(=O)=O)OC(C)(C)O[C@@H]23)O1 [Topiramate, 2,3:4,5-bis-O-(1-methylethylidene)-beta-D-fructopyranose sulfamate]
- Half life (in vivo): 19 to 23 h
- Metabolism, hepatic share (in vivo): 30%

Structure (SMILES): CCC(C)C(CC)C(N)=O (centres unmarked) [Valnoctamide]
- Bioavailability (in vivo): 94%[1]
- Half life (in vivo): 10 h
- Metabolism [8]: Hepatic

Structure (SMILES): C=CC(N)CCC(=O)O (centres unmarked) [Vigabatrin]
- Bioavailability (in vivo): 80-90%
- Excretion [9]: Renal
- Metabolism [8]: Almost no metabolic transformation occurs
- Half life (the elderly): 12 to 13 h
- Half life (young adults): 5 to 8 h

Structure (SMILES): NS(=O)(=O)Cc1noc2ccccc12 [Zonisamide, 1,2-benzisoxazole-3-methanesulfonamide]
- Effect on sodium channels (sodium channels): blocks sodium channels
- Effect on T-type Ca2+ currents (T-type Ca^2+ currents): reduces voltage-dependent, transient inward currents
- Synaptically-driven electrical activity [5]: suppresses synaptically-driven electrical activity
- Postsynaptic GABA or glutamate responses ([5]; cultured mouse spinal cord neurons): without affecting
- Neuronal or glial uptake of [3H]-GABA (rat hippocampal slices): without affecting
- Half life (in red blood cells): 105 h
- Excretion [9]: Renal
- Metabolism [8]: Hepatic
- Dopaminergic and serotonergic neurotransmission [6]: facilitates both dopaminergic and serotonergic neurotransmission
- Binding to GABA/benzodiazepine receptor ionophore complex [7]: binds to the GABA/benzodiazepine receptor ionophore complex in an allosteric fashion
- Chloride flux [7]: does not produce changes in chloride flux
- Carbonic anhydrase inhibiting activity (carbonic anhydrase): weak
- Effective doses in controlled trials (partial seizures): 100 to 600 mg/day
